Source: publication PMC6346587, “Glucose 6-phosphate dehydrogenase 6-phosphogluconolactonase: characterization of the Plasmodium vivax enzyme and inhibitor studies” (Malaria Journal, 2019)
Substitutions are numbered along the chain they refer to. Names may count otherwise. Read-outs that look alike come from different tables or passages of the source.

Legend:
PvG6PD = PvG6PD (Plasmodium vivax, UniProt A5K3M1); assay: PvG6PD enzyme inhibition assay (NADPH formation, absorbance 340 nm / fluorescence); assay type: biochemical; conditions: for IC50 on PvG6PD: ellagic acid and derivatives
Method: The G6PD activity of PfGluPho variants was measured spectrophotometrically as described for the wt enzyme. Kinetic characterization of PvG6PD was performed using the same assay system at an Evolution 300 spectrophotometer (Thermo Scientific, Dreieich, Germany). In brief, the initial reduction of NADP^+ to NADPH by PvG6PD was monitored by measuring the absorbance at 340 nm. The 500 µL reaction mixture contained 200 µM NADP^+ and varying concentrations of PvG6PD in an assay buffer of 100 mM Tris–HCl, pH 8.0, 10 mM MgCl2, and 0.5 mM EDTA at 25 °C. The reaction was started by adding 800 µM G6P. The KM for NADP^+ was determined by titrating NADP^+ from 2 to 400 µM at 800 µM G6P; the KM for G6P was measured accordingly by titrating G6P from 2 to 1200 µM at 200 µM NADP^+. KM values were calculated using GraphPad Prism. Since the KM for G6P was considerably higher than the value measured for PfGluPho [14], a concentration of 800 µM G6P was defined as substrate saturation for PvG6PD.
(§1) To identify potential inhibitors of PvG6PD, compounds with already known effects on PfGluPho (ellagic acid and derivatives, ML304) were tested. Additionally, several compound libraries of the Helmholtz Center for Infection Research, Brunswick, were screened against PfGluPho using the high-throughput-compatible assay systems described in Preuss et al.. […] Based on structure-activity relationship studies, a set of new potential G6PD inhibitors (Fig. 8) was then synthesized and assessed. First, the IC50 values of the compounds were determined, followed by mechanistic characterization of the mode of action. To test for selectivity of the compounds, the IC50 values of the compounds on PvG6PD, PfGluPho, and hG6PD were determined in parallel.
(§2) All measurements were performed in 96-well plates, half area (Greiner Bio-One, Frickenhausen, Germany) using a Tecan Infinite M200 plate reader (Maennedorf, Switzerland). The compounds were dissolved in 100% DMSO and afterwards diluted in assay buffer to the required concentrations. Different compound concentrations were added to a mixture of enzyme and NADP^+ in assay buffer. Concentrations of substrates differed depending on the enzyme; an overview is given in the Additional file 4. The reaction was started by adding G6P, and the increase of NADPH was monitored by measuring the absorbance at 340 nm. To increase the sensitivity of the assay, some measurements were reproduced, detecting the fluorescence of NADPH at ex340/em460. […] A negative control containing no compound was defined as 0% inhibition; a positive control lacking the substrate G6P was defined as 100% inhibition. For evaluations using GraphPad Prism and Microsoft Excel, only a linear increase in absorbance/fluorescence was considered. For the mechanistic characterization of the compounds, either NADP^+ or G6P were titrated at different compound concentrations around the IC50, while keeping the second substrate in saturation. The initial slope was plotted as Michaelis–Menten curves and Lineweaver–Burk plots using GraphPad Prism; KM values and Vmax were calculated with GraphPad Prism software.

PfGluPho [1] = target: T1, PfGluPho (Plasmodium falciparum, UniProt Q8IKU0); assay: PfGluPho G6PD activity inhibition assay; assay type: biochemical
T1 construct: made in house
T1 sequence (Q8IKU0 1-910): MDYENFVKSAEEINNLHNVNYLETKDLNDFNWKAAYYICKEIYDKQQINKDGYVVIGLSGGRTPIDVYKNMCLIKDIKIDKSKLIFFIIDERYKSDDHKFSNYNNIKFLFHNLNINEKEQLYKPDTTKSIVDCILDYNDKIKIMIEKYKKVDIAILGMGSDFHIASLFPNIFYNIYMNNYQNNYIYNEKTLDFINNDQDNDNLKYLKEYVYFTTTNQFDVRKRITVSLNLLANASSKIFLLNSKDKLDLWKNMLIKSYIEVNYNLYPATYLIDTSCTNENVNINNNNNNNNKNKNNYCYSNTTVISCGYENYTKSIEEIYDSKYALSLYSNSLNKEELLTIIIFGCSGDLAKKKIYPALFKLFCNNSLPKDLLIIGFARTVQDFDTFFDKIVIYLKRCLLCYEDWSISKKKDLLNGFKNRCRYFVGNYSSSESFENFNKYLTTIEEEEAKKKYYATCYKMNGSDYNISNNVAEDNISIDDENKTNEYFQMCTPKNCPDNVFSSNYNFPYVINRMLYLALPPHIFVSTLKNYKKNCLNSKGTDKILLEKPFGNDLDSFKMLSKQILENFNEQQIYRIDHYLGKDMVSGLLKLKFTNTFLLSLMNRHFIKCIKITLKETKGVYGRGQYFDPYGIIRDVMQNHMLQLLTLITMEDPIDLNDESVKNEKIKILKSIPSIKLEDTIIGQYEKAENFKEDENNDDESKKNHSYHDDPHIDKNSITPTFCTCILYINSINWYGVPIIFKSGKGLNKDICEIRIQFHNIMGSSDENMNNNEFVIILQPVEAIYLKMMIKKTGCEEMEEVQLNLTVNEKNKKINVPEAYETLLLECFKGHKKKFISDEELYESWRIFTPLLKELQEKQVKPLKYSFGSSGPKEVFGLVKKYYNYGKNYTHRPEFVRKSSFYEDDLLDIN
Method: as §1, §2

hG6PD [2] = target: T2, hG6PD (Homo sapiens, UniProt P11413); assay: hG6PD enzyme inhibition assay; assay type: biochemical; conditions: for IC50 on hG6PD relative to plasmodial enzymes (selectivity): compared with PfGluPho and PvG6PD
T2 construct: made in house
Method: as §1, §2

[3] = Stability of compounds in enzyme assay buffer; assay type: physicochemical; conditions: 100 mM Tris–HCl pH 8.0 assay buffer, DMSO stock
hG6PD [4] = target: T2, hG6PD; conditions: ML276; read-out: IC50 against hG6PD; cited from earlier work
PfGluPho [5] = target: T1, PfGluPho; conditions: ML276; read-out: IC50 against PfGluPho; cited from earlier work
[6] = target: the molecule itself; assay: SEC; size exclusion chromatography of purified PfGluPho mutants under reducing conditions
[7] = mean ± SD, at least two independent determinations, different enzyme batches, read-out: IC50 on PfGluPho
[8] = mean ± SD, only one enzyme batch, read-out: IC50 on hG6PD

T2 sequence (P11413 whole entry): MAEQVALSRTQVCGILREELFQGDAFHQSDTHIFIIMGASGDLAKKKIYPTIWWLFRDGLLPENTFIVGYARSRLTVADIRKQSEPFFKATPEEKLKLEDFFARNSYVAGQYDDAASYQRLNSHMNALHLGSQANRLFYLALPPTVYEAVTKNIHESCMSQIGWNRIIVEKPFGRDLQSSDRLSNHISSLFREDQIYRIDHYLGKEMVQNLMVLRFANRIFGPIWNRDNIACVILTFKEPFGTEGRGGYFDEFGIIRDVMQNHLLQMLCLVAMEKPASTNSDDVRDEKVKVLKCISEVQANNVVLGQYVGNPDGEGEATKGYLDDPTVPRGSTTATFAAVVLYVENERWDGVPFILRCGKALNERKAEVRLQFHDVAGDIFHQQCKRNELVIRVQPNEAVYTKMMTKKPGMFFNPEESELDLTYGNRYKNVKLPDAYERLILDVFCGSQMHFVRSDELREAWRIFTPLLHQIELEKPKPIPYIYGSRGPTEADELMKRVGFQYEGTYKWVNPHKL
Sequence of PvG6PD (A5K3M1 entry or part of it): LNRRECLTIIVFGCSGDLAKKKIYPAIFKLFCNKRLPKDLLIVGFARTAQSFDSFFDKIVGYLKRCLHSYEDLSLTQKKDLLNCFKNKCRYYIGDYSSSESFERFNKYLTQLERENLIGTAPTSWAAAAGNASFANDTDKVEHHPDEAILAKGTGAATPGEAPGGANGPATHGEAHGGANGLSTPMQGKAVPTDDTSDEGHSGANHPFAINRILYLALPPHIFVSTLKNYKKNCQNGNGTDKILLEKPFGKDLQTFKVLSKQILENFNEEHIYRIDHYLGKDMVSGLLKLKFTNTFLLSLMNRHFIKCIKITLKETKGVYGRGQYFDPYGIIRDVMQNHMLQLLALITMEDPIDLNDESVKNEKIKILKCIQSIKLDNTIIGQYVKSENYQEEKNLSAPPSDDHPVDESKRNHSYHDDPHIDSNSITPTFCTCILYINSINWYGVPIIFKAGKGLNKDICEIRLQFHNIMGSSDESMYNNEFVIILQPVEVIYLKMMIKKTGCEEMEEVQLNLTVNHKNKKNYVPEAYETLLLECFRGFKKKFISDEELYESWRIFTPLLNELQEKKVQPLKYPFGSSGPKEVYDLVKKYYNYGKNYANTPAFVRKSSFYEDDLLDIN

Question: Which IC50 (PvG6PD) does the source give for `N#CC(Br)c1ncccn1` (stereo not drawn) [2 (vz1731)] here?
Answer: 2.1 ± 0.1 µM

Question: What about the IC50 (PfGluPho [1]; [7]) of the same molecule?
Answer: 11.7 ± 9.9 µM

Question: What about the IC50 (hG6PD [2]; [8]) of the same molecule?
Answer: 91.7 ± 35 µM

Question: What about the “Stability in the assay buffer / of dissolved compound” value [3] of the same molecule?
Answer: only active when the powder was freshly dissolved

Question: With `N#CC(Br)c1ncccc1Cl` (stereo not drawn) [4 (vz1732)] as the molecule, how does the IC50 (PvG6PD) read?
Answer: 0.2 µM

Question: What about the “Type of inhibition of PfGluPho against G6P and NADP+” value (PfGluPho [1]; both substrate G6P and coenzyme NADP+) of the same molecule?
Answer: non-competitively

Question: And the IC50 (PfGluPho [1]; [7])?
Answer: 0.9 ± 0.2 µM

Question: And the “IC50 on hG6PD relative to plasmodial enzymes (selectivity)” value (hG6PD [2])?
Answer: one to two orders of magnitude higher

Question: What about the IC50 (hG6PD [2]; [8]) of the same molecule?
Answer: 34.7 ± 21 µM

Question: And the “Stability in the assay buffer / of dissolved compound” value [3]?
Answer: only active when the powder was freshly dissolved

Question: For `ClC=C(n1nnc2ccccc21)n1nnc2ccccc21` [8 (vz0882)], which IC50 (PvG6PD) is on record?
Answer: 12.8 ± 7.8 µM

Question: And the IC50 (PfGluPho [1]; [7])?
Answer: 18.1 ± 10.4 µM

Question: And the “Stability in the assay buffer / of dissolved compound” value [3]?
Answer: less stable

Question: Which IC50 (PvG6PD) does the source give for `O=C(O)C(Cl)(C=C(Cl)Cl)[N+](=O)[O-]` (stereo not drawn) [10 (vz1204)] here?
Answer: 23.5 ± 3.7 µM

Question: What about the IC50 (hG6PD [2]; [8]) of the same molecule?
Answer: > 100 µM

Question: With `O=CC(Cl)=C(I)I` [13 (vz0288)] as the molecule, how does the IC50 (PvG6PD; mean ± SD, at least two independent determinations, different enzyme batches, read-out: IC50 on PvG6PD) read?
Answer: 23.3 ± 7.8 µM

Question: What about the IC50 (PfGluPho [1]; [7]) of the same molecule?
Answer: 29.6 ± 23.2 µM

Question: And the IC50 (hG6PD [2]; [8])?
Answer: > 100 µM

Question: With `O=C(C(=C1N(Cc2ccc(Cl)nc2)CCN1Cc1ccc(Cl)nc1)[N+](=O)[O-])C(Cl)(Cl)[N+](=O)[O-]` [18 (vz0909)] as the molecule, how does the IC50 (PvG6PD) read?
Answer: 9.1 ± 2.8 µM

Question: What about the IC50 (PfGluPho [1]) of the same molecule?
Answer: 23.6 ± 14.3 µM

Question: And the IC50 (hG6PD [2])?
Answer: 26 ± 1.8 µM

Question: What about the “Stability in the assay buffer / of dissolved compound” value [3] of the same molecule?
Answer: less stable

Question: With `O=C(/C(=C1\N(Cc2ccc(Cl)nc2)CCN1Cc1cnc(Cl)s1)[N+](=O)[O-])C(Cl)(Cl)[N+](=O)[O-]` [19 (vz0914)] as the molecule, how does the IC50 (PvG6PD) read?
Answer: 5.6 ± 0.6 µM

Question: What about the IC50 (PfGluPho [1]) of the same molecule?
Answer: 8.4 ± 8.4 µM

Question: And the IC50 (hG6PD [2])?
Answer: 29.6 ± 5 µM

Question: What about the “Stability in the assay buffer / of dissolved compound” value [3] of the same molecule?
Answer: less stable

Question: Which results are given for `O=[N+]([O-])C(C(Cl)=C(Cl)Cl)=C1N(c2ccccc2)CCN1c1ccccc1` [20 (vz0005)]?
Answer: IC50 (PvG6PD): > 100 µM; IC50 (PfGluPho [1]; [7]): > 100 µM; IC50 (hG6PD [2]; [8]): > 100 µM

Question: For `C=C[S+]([O-])c1sc(Cl)c(N2CCN(c3c(Cl)sc([S+]([O-])C=C)c3[N+](=O)[O-])CC2)c1[N+](=O)[O-]` (stereo not drawn) [21 (vz0527)], which IC50 (PvG6PD) is on record?
Answer: 0.2 ± 0.1 µM

Question: And the IC50 (PfGluPho [1])?
Answer: 1.7 ± 0.3 µM

Question: What about the IC50 (hG6PD [2]) of the same molecule?
Answer: 8.3 ± 2.7 µM

Question: And the “IC50 on hG6PD relative to plasmodial enzymes (selectivity)” value (hG6PD [2])?
Answer: one to two orders of magnitude higher

Question: And the “Stability in the assay buffer / of dissolved compound” value [3]?
Answer: only active when the powder was freshly dissolved

Question: What does the source list for `O=c1oc2c(O)c(O)c(O)c3c(=O)oc4c(O)c(O)c(O)c1c4c23` [CEA, coruleoellagic acid]?
Answer: IC50 (PvG6PD): 0.0444 ± 0.0019 µM; IC50 on PvG6PD (PvG6PD): lower nanomolar range

Question: For `O=c1oc2c(O)c(O)c(O)c3c(=O)oc4c(O)c(O)cc1c4c23` [FEA, flavellagic acid], which IC50 (PvG6PD) is on record?
Answer: 0.0372 ± 0.0058 µM

Question: What about the “IC50 on PvG6PD” value (PvG6PD) of the same molecule?
Answer: lower nanomolar range

Question: Which results are given for `CCN1CCC[C@@H]1CNC(=O)c1ccc2c(c1)NC(=O)/C(=C/c1ccccc1F)S2` [ML276, (R, Z)-N-((1-ethylpyrrolidin-2-yl)methyl)-2-(2-fluorobenzylidene)-3-oxo-3,4-dihydro-2H-benzo[b][1,4]thiazine-6-carboxamide]?
Answer: IC50 (hG6PD [4]): > 80 µM; IC50 (PfGluPho [5]): 890 nM

B1: PfGluPho S315Y (enzyme)
chain: T1 sequence (Q8IKU0 1-910) with S315Y
notes: source: E. coli, purified (size exclusion chromatography under reducing conditions); produced as described previously [14]
Question: With B1 as the molecule, how does the “stoichiometry N” value [6] read?
Answer: 4

B2: PfGluPho S900E (phosphomimetic mutant) (enzyme)
chain: T1 sequence (Q8IKU0 1-910) with S900E
notes: as for B1
Question: Which “stoichiometry N” value [6] does the source give for B2 here?
Answer: 4

B3: PfGluPho L395F (enzyme)
chain: T1 sequence (Q8IKU0 1-910) with L395F
notes: as for B1
Question: Which “stoichiometry N” value [6] does the source give for B3 here?
Answer: 4

B4: PfGluPho F507L (enzyme)
chain: T1 sequence (Q8IKU0 1-910) with F507L
notes: as for B1
Question: Which “stoichiometry N” value [6] does the source give for B4 here?
Answer: 4

B5: PfGluPho S899E (phosphomimetic mutant) (enzyme)
chain: T1 sequence (Q8IKU0 1-910) with S899E
notes: as for B1
Question: With B5 as the molecule, how does the “stoichiometry N” value [6] read?
Answer: 4
